In US10730848B2 (priority 2013, dated 2020):
Where two headings read alike, the source gives them in different places.

Test system: anthrax lethal toxin (LT)
Experiment: cells
Type: cell-based, murine
[1] = Mus musculus, RAW264.7, read-out: IC50 (In uM)
[2] = Mus musculus, RAW264.7, read-out: IC50, inhibition of LT-induced cell death

| Structure (SMILES) | protection of cells from LT (in words) | IC50 (Mus musculus, RAW264.7) [µM] | IC50 [1] [µM] | IC50 [2] [µM] | fold less active than 1 | IC50 [µM] |
| --- | --- | --- | --- | --- | --- | --- |
| Cc1cccc(C)c1NC(=O)N/N=C/c1ccc(Br)cc1F [Compound 2, N^1-(4-BROMO-2-FLUOROBENZYLIDENE)-N^4-(2,6-DIMETHYLPHENYL)SEMICARBAZONE] | mid-nanomolar levels | 0.4 | 0.4 | 0.4 |  |  |
| Cc1cccc(C)c1NC(=O)NN [Compound 6, N-(2,6-DIMETHYLPHENYL) SEMICARBAZIDE] | did not prevent toxin-induced cell death |  |  |  |  |  |
| Cc1ccc(NC(=O)N/N=C/c2ccc(Br)cc2)c(C)c1 [Compound 9a, N^1-(4-BROMOBENZYLIDENE)-N^4-(2,4-DIMETHYLPHENYL)SEMICARBAZONE] | not protective | > 25 |  |  |  |  |
| Cc1cc(C)c(NC(=O)N/N=C/c2ccc(Br)cc2)c(C)c1 [Compound 9b, N^1-(4-BROMOBENZYLIDENE)-N^4-(2,4,6-DIMETHYLPHENYL)SEMICARBAZONE] |  | 12.6 | 12.6 |  | approximately 10 fold |  |
| CCc1cccc(CC)c1NC(=O)N/N=C/c1ccc(Br)cc1 [Compound 9c, N^1-(4-BROMOBENZYLIDENE)-N^4-(2,6-DIETHYLPHENYL)SEMICARBAZONE] |  | 16.7 | > 12.5 | > 12.5 |  | > 12.5 |
| CC(C)(C)NC(=O)N/N=C/c1ccc(Br)cc1 [Compound 10, N^1-(4-BROMOBENZYLIDENE)-N^4-(TERT-BUTYL)SEMICARBAZONE] | not protective | > 25 |  |  |  |  |
| O=C(N/N=C/c1ccc(Cl)cc1)Nc1ccccc1 [Compound 11, N^1-(4-Cl-benzylidene)-N^4-phenylsemicarbazone, reference compound] | not protective | > 25 |  |  |  |  |
| Cc1cccc(C)c1NC(=O)NN=Cc1ccccc1 [Compound 12, benzaldehyde N-(2,6-dimethylphenyl)semicarbazone, reference compound] | showed almost no activity against LT | > 25 |  |  |  |  |
| Cc1cccc(C)c1NC(=O)N/N=C/c1ccc(Cl)cc1 [Compound 13a, N^1-(4-CHLOROBENZYLIDENE)-N^4-(2,6-DIMETHYLPHENYL)SEMICARBAZONE] |  | 1.65 | 1.65 |  |  | 1.7 ± 0.2 |
| Cc1cccc(C)c1NC(=O)N/N=C/c1ccc(Br)c(F)c1 [Compound 13aa, N^1-(4-BROMO-3-FLUOROBENZYLIDENE)-N^4-(2,6-DIMETHYLPHENYL)SEMICARBAZONE] |  | 1.5 |  |  |  |  |
| Cc1cccc(C)c1NC(=O)N/N=C/c1ccc(Br)c(Cl)c1 [Compound 13ab, N^1-(4-BROMO-3-CHLOROBENZYLIDENE)-N^4-(2,6-DIMETHYLPHENYL)SEMICARBAZONE] |  | 3.4 |  |  |  |  |
| Cc1cccc(C)c1NC(=O)N/N=C/c1cccc(C(F)(F)F)c1Cl [Compound 13b, N^1-(2-CHLORO-3-TRIFLUOROMETHYLBENZYLIDENE)-N^4-(2,6-DIMETHYLPHENYL)SEMICARBAZONE] |  | > 25 | > 25 |  |  |  |
| Cc1cccc(C)c1NC(=O)N/N=C/c1ccccc1F [Compound 13c, N^1-(2-FLUOROBENZYLIDENE)-N^4-(2,6-DIMETHYLPHENYL)SEMICARBAZONE] |  | 8.2 | 8.23 |  |  |  |
| Cc1ccc(/C=N/NC(=O)Nc2c(C)cccc2C)cc1F [Compound 13d, N^1-(3-FLUORO-4-METHYLBENZYLIDENE)-N^4-(2,6-DIMETHYLPHENYL)SEMICARBAZONE] |  | 1.8 | 1.81 |  |  |  |
| Cc1cccc(C)c1NC(=O)N/N=C/c1ccc(F)cc1 [Compound 13e, N^1-(4-FLUOROBENZYLIDENE)-N^4-(2,6-DIMETHYLPHENYL)SEMICARBAZONE] |  | 7 | 7 | 7 |  |  |
| Cc1cccc(C)c1NC(=O)N/N=C/c1ccc(F)cc1F [Compound 13f, N^1-(2,4-DIFLUOROBENZYLIDENE)-N^4-(2,6-DIMETHYLPHENYL)SEMICARBAZONE] |  | 2.1 | 2.14 | 2.1 |  |  |

| Structure (SMILES) | protection of cells from LT (in words) | IC50 (Mus musculus, RAW264.7) [µM] | IC50 [1] [µM] | IC50 [2] [µM] | fold less active than 1 | IC50 [µM] |
| --- | --- | --- | --- | --- | --- | --- |
| COc1cccc(/C=N/NC(=O)Nc2c(C)cccc2C)c1OC [Compound 13g, N^1-(2,3-DIMETHOXYBENZYLIDENE)-N^4-(2,6-DIMETHYLPHENYL)SEMICARBAZONE] |  | > 25 | > 25 |  |  |  |
| COc1cc(OC)c(/C=N/NC(=O)Nc2c(C)cccc2C)c(OC)c1 [Compound 13h, N^1-(2,4,6-TRIMETHOXYBENZYLIDENE)-N^4-(2,6-DIMETHYLPHENYL)SEMICARBAZONE] |  | > 25 | > 25 |  |  |  |
| Cc1ccccc1/C=N/NC(=O)Nc1c(C)cccc1C [Compound 13i, N^1-(2-METHYLBENZYLIDENE)-N^4-(2,6-DIMETHYLPHENYL)SEMICARBAZONE] |  | > 25 | > 25 |  |  |  |
| Cc1cccc(/C=N/NC(=O)Nc2c(C)cccc2C)c1 [Compound 13j, N^1-(3-METHYLBENZYLIDENE)-N^4-(2,6-DIMETHYLPHENYL)SEMICARBAZONE] |  | 13.4 | 13.4 |  |  |  |
| Cc1ccc(/C=N/NC(=O)Nc2c(C)cccc2C)cc1 [Compound 13k, N^1-(4-METHYLBENZYLIDENE)-N^4-(2,6-DIMETHYLPHENYL)SEMICARBAZONE] |  | 2.9 | 2.9 |  |  |  |
| CCc1ccc(/C=N/NC(=O)Nc2c(C)cccc2C)cc1 [Compound 13l, N^1-(4-ETHYLBENZYLIDENE)-N^4-(2,6-DIMETHYLPHENYL)SEMICARBAZONE] |  | 3 | 3.02 |  |  |  |
| Cc1cccc(C)c1NC(=O)N/N=C/c1ccc(C(C)C)cc1 [Compound 13m, N^1-(4-I-PROPYLBENZYLIDENE)-N^4-(2,6-DIMETHYLPHENYL)SEMICARBAZONE] |  | 6.5 | 6.48 |  |  |  |
| COc1ccc(/C=N/NC(=O)Nc2c(C)cccc2C)cc1 [Compound 13n, N^1-(4-METHOXYBENZYLIDENE)-N^4-(2,6-DIMETHYLPHENYL)SEMICARBAZONE] |  | > 12.5 | > 12.5 |  |  |  |
| C#Cc1ccc(/C=N/NC(=O)Nc2c(C)cccc2C)cc1 [Compound 13o, N^1-(4-ETHYNYLBENZYLIDENE)-N^4-(2,6-DIMETHYLPHENYL)SEMICARBAZONE] |  | 1.7 | 1.69 |  |  |  |
| Cc1cccc(C)c1NC(=O)N/N=C/c1ccc(NS(C)(=O)=O)cc1 [Compound 13p, N^1-(4-(N-(4-FORMYLPHENYL)METHANESULFONAMIDE)BENZYLIDENE-N^4-(2,6-DIMETHYLPHENYL)SEMICARBAZONE] |  | > 25 | > 25 |  |  |  |
| Cc1cccc(C)c1NC(=O)N/N=C/c1ccc(I)cc1 [Compound 13q, N^1-(4-IODOBENZYLIDENE)-N^4-(2,6-DIMETHYLPHENYL)SEMICARBAZONE] |  | 1.77 | 1.77 |  |  | 1.8 ± 0.3 |
| Cc1cccc(C)c1NC(=O)N/N=C/c1ccc(C(F)(F)F)cc1 [Compound 13r, N^1-(4-TRIFLUOROMETHYLBENZYLIDENE)-N^4-(2,6-DIMETHYLPHENYL)SEMICARBAZONE] |  | 2.6 ± 0.5 | 2.59 |  |  |  |
| Cc1cccc(C)c1NC(=O)N/N=C/c1ccc(C#N)cc1 [Compound 13s, N^1-(4-CYANOMETHYLBENZYLIDENE)-N^4-(2,6-DIMETHYLPHENYL)SEMICARBAZONE] |  | 2.45 | 2.45 |  |  | 2.5 ± 0.3 |
| Cc1cccc(C)c1NC(=O)N/N=C/c1ccncc1 [Compound 13t, N^1-(PYRIDIN-4-YLMETHYLENE)-N^4-(2,6-DIMETHYLPHENYL)SEMICARBAZONE] |  | > 25 |  |  |  |  |
| Cc1cccc(C)c1NC(=O)N/N=C/c1ccco1 [Compound 13u, N^1-(FURAN-2-YLMETHYLENE)-N^4-(2,6-DIMETHYLPHENYL)SEMICARBAZONE] |  | > 25 |  |  |  |  |
